Laboratory results taken from patent US4136196A, “Hypoglycaemically active 2-(phenylalkyl- or -alkenyl hydrazono)-propionic acid derivatives” (Boehringer Mannheim GmbH, priority 1976, dated 1979).

System: blood glucose
Assay: Blood sugar tests: hypoglycaemic activity in fasting guinea pigs, i.p.
Assay type: in vivo, guinea pig
Conditions: Cavia porcellus, ip, read-out: Threshold i.p. Dosage for Hypoglycaemic Activity in Testing Guinea Pigs
Procedure: In order to illustrate the pharmacological properties of the compounds according to the invention, the blood sugarlowering effect and the monoaminoxidase (MAO) inhibition were determined and compared with some corresponding hydrazines. […] Metabolically healthy, cross-bred, fasting guinea pigs were injected with the substances as aqueous solutions of their sodium salts, i.p. A control group receives equivalent amounts of an isotonic NaCl solution. Directly before, as well as in hourly intervals up to the fourth hour after the […], 10 μl blood are taken from an ear border vein and the blood glucose is determined by means of the trouble-free and specific hexokinase technique.

| Compound | minimal effective dose |
| --- | --- |
| NNCCc1ccccc1 [Phenelzine, 2-phenylethyl-hydrazine, reference compound] | ≥ 50 mg/kg |
| CC(=NNCCCc1ccccc1)C(=O)[O-].[Na+] [Sodium 2-(3-phenylpropylhydrazono)-propionate] | 35 mg/kg |
| CC(=NNCC=Cc1ccccc1)C(=O)[O-].[Na+] [Sodium-2-(cinnamylhydrazono)-propionate, sodium 2-(cinnamylhydrazono)-propionate] | 15 mg/kg |
| COc1ccccc1CCNN=C(C)C(=O)[O-].[Na+] [sodium 2-(2-methoxyphenethylhydrazono)-propionate] | 25 mg/kg |
| CC(=NNCCc1cccc(Br)c1)C(=O)[O-].[Na+] [sodium 2-(3-bromophenethylhydrazono)-propionate] | 25 to 50 mg/kg |

Same assay, conditions: Cavia porcellus, ip; fasting guinea pigs, i.p., aqueous solutions of sodium salts; dosage which significantly lowers blood glucose versus control, up to fourth hour; read-out: Threshold i.p. Dosage for Hypoglycaemic Activity in Testing Guinea Pigs

| Compound | minimal effective dose |
| --- | --- |
| CC(=NNCCc1ccccc1C)C(=O)O [2-(2-methylphenethylhydrazono)-propionic acid] | 50 mg/kg |
| CC(=NNCCc1ccc(Cl)cc1)C(=O)O [2-(4-chlorophenethylhydrazono)-propionic acid] | 25 mg/kg |
| CC(=NNCCc1ccc(F)cc1)C(=O)O [2-(4-fluorophenethylhydrazono)-propionic acid] | 25 mg/kg |
| COc1ccc(CCNN=C(C)C(=O)O)cc1 [2-(4-methoxyphenethylhydrazono)-propionic acid] | 50 mg/kg |
| CC(=NNCCc1ccccc1)C(N)=O [2-(phenethylhydrazono)-propionamide] | 50 mg/kg |
| CC(=NNCCc1ccccc1)C(=O)O [2-(phenethylhydrazono)-propionic acid, 2-(Phenethylhydrazono)-propionic acid] | 15 mg/kg |
| CC(=NNCCc1ccc(C)cc1)C(=O)O [2-[2-(p-tolyl)-ethylhydrazono]-propionic acid] | 50 mg/kg |
| CCOC(=O)C(C)=NNCCc1ccccc1 [Ethyl 2-(phenethylhydrazono)-propionate] | 25 mg/kg |
| COC(=O)C(C)=NNCCc1ccccc1 [Methyl 2-(phenethylhydrazono)-propionate] | 50 mg/kg |

Same assay, conditions: fasting guinea pigs, i.p., aqueous solutions of sodium salts; dosage which significantly lowers blood glucose versus control, up to fourth hour

| Compound | Threshold i.p. Dosage for Hypoglycaemic Activity in Testing Guinea Pigs |
| --- | --- |
| 3-phenyl-propen-2-yl--hydrazin-hydrochloride [reference compound] | > 50 mg/kg |
| sodium 2-(β-methylcinnamylhydrazono)-propionate | 10 mg/kg |

System: MAO
Assay: Measuring of the MAO activity in vitro (kynuramine substrate, unrefined guinea pig liver or brain preparation)
Assay type: biochemical
Conditions: 360 mμ, read-out: Concentration for 50% MAO Inhibitions
Procedure: In order to illustrate the pharmacological properties of the compounds according to the invention, the blood sugarlowering effect and the monoaminoxidase (MAO) inhibition were determined and compared with some corresponding hydrazines.
An unrefined MAO preparation is obtained by comminution of guinea pig liver or brain with the Ultraturrax and subsequent centrifuging at about 10,000 g. The liquid contains the MAO portion dissolved in the cytoplasm and is used for the activity measurements. As substrate there is used kynuramine whose oxidative decomposition by the MAO can be directly observed at 360 m μ in the photometer. The extinction decrease per time unit is a measure of the enzyme activity.

| Compound | IC50 |
| --- | --- |
| CC(=NNCCc1ccccc1)C(=O)O [2-(phenethylhydrazono)-propionic acid, 2-(Phenethylhydrazono)-propionic acid] | 600 µM |
| NNCCc1ccccc1 [Phenelzine, 2-phenylethyl-hydrazine, reference compound] | 0.4 µM |

System: not given
Assay: not given
Conditions: in high dosages; literature; cited from earlier work

| Compound | hypoglycaemic activity |
| --- | --- |
| NNCCc1ccccc1 [Phenelzine, 2-phenylethyl-hydrazine, reference compound] | can be hypoglycaemically active in high dosages |
| CC(NN)c1ccccc1 (centres unmarked) [mebanazine, 1-phenylethyl-hydrazine] | can be hypoglycaemically active in high dosages |
